Laboratory results taken from patent publication US20240279221A1, “HETEROCYCLIC COMPOUNDS AND METHODS OF USE” (Schrödinger, Inc., priority 2021, published 2024).

What was measured:
[1] = molecular target: SOS1:KRAS (G12C) interaction (Homo sapiens (Human), UniProt Q07889); test: SOS1-KRas(G12C) FRET Assay; assay type: binding; conditions: 0.5 nM His10-SOS1 (res. 564-1049), 2.5 nM GST-KRAS (res. 1-169, G12C); read-out: SOS-KRas(G12C) FRET IC50
Outline: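 TR-FRET measured binding of His10-SOS1 (res. 564-1049, 0.5 nM) to GST-KRAS G12C (res. 1-169, 2.5 nM), with anti-GST-Eu(K) and anti-6His-XL665 labels, in PBS with BSA, MgCl2, KF and DTT; 0.5% DMSO. Compound and SOS1 were pre-incubated 15 min at 25° C, KRAS was added, and the plate was read at 665/615 nm after 2 h at RT. IC50 and Hill slope came from non-linear regression.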

human SOS1 = human SOS1 (Homo sapiens (Human), UniProt Q07889); test: Surface Plasmon Resonance (SPR) SOS1 Binding Assay; conditions: biotinylated SOS1 (res. 564-1049), 25° C., kinetic or steady state fit, read-out: KD for hSOS1
Sequence of human SOS1 (Q07889 564-1049): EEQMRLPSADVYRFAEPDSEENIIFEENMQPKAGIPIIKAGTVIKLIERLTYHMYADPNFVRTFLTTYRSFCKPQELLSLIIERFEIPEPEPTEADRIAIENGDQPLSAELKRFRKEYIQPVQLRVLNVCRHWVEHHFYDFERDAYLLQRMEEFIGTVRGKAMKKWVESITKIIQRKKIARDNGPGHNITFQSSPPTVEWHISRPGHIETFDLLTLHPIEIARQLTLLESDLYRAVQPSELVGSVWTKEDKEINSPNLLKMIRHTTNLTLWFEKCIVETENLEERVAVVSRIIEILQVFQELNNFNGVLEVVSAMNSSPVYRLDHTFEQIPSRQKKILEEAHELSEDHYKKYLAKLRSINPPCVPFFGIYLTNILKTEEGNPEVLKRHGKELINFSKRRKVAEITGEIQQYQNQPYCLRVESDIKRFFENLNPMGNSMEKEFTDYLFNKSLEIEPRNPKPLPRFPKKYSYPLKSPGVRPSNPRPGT
Description: Binding to SOS1 was measured using a SPR assay with purified recombinant human SOS1 substrate (res. 564-1049 with N-terminal Avi tag; purified and biotinylated based on Hillig, et al., Proc Natl Acad Sci USA (2019); 116(7):2551-2560). SPR measurements were performed on a Biacore 8K SPR instrument (GE Healthcare, Sweden). Assays were performed at 25° C. using Series S SA sensor chips pre-coated with streptavidin (GE Healthcare, Cat. BR100531). Biotinylated SOS1 diluted in sample buffer (20 mM Tris HCl, 150 mM NaCl, 1 mM DTT, 0.05% TWEEN 20, 1 mM MgCl2, pH 8.0) was captured to one flow cell of the chip to about 3,000 resonance units (RU) using sample buffer supplemented with 5% DMSO as a running buffer. Serial dilutions of the assayed compounds in the running buffer at 100, 50 or 0.5 μM were injected for 60 s at a flow rate of 30 μL/min and association phases were recorded. Dissociation of the samples was monitored for 600 s. Data processing was performed using Biacore Insight Software (Biacore, GE Healthcare). Sensorgrams recorded on a SA flow cell without captured protein were subtracted from sensorgrams recorded on the SOS1 surface. Blank injections of running buffer were used for double referencing and solvent correction was applied to all sample sensorgrams to correct for buffer mismatches. KDs were estimated using a kinetic or steady state, where applicable, fitting model describing a reversible equilibrium with 1:1 binding between SOS1 and the compound.

Sequence of SOS1:KRAS (G12C) interaction (Q07889 564-1049, stated change not applied): as the sequence (Q07889 564-1049) above

| IC50 [1] [nM] | Kd (human SOS1) [nM] | Structure (SMILES) |
| --- | --- | --- |
| 284 | 63 | Cc1c([C@@H](C)Nc2nn(C)c(=O)c3c(N4CC[C@@H](N)C4)c(=O)n(C4CC4)cc23)cccc1C(F)(F)F [Example 20, 8-((R)-3-aminopyrrolidin-1-yl)-6-cyclopropyl-2-methyl-4-(((R)-1-(2-methyl-3-(trifluoromethyl)phenyl)ethyl)amino)-2,6-dihydropyrido[3,4-d]pyridazine-1,7-dione] |
| 5810 | > 5000 | C[C@H](Nc1nn(C)c(=O)c2cc(=O)n(C3CCOCC3)cc12)c1cccc(C(F)(F)[C@@H]2CCCO2)c1F (single isomer, unassigned) [Example 44] |
| 92.8 | 37 | C[C@@H](Nc1nn(C)c(=O)c2cc(=O)n(C3CC(C#N)C3)cc12)c1cccc(C(F)F)c1F (stereo partly drawn) [Example 76, (1r,3s)-3-(4-(((R)-1-(3-(difluoromethyl)-2-fluorophenyl)ethyl)amino)-2-methyl-1,7-dioxo-1,7-dihydropyrido[3,4-d]pyridazin-6(2H)-yl)cyclobutane-1-carbonitrile] |
| 806 | 161 | CCOc1c(=O)n(C2CC2)cc2c(N[C@H](C)c3cccc(C(F)(F)F)c3C)nn(C)c(=O)c12 [Example 19, (R)-6-cyclopropyl-8-ethoxy-2-methyl-4-((1-(2-methyl-3-(trifluoromethyl)phenyl)ethyl)amino)-2,6-dihydropyrido[3,4-d]pyridazine-1,7-dione] |
| 239 | 34 | Cc1c([C@@H](C)Nc2nn(CCN)c(=O)c3cc(=O)n(C4CC4)cc23)cccc1C(F)(F)F [Example 24, (R)-2-(2-aminoethyl)-6-cyclopropyl-4-((1-(2-methyl-3-(trifluoromethyl)phenyl)ethyl)amino)-2,6-dihydropyrido[3,4-d]pyridazine-1,7-dione] |
| 305 | 61 | Cc1c([C@@H](C)Nc2nn(CCO)c(=O)c3cc(=O)n(C4CC4)cc23)cccc1C(F)(F)F [Example 77, (R)-6-cyclopropyl-2-(2-hydroxyethyl)-4-((1-(2-methyl-3-(trifluoromethyl)phenyl)ethyl)amino)-2,6-dihydropyrido[3,4-d]pyridazine-1,7-dione] |
| 78.4 | 17 | Cc1c([C@@H](C)Nc2nn(C)c(=O)c3c([C@H]4CCCN4)c(=O)n(C4CC4)cc23)cccc1C(F)(F)F [Example 35, 6-cyclopropyl-2-methyl-4-(((R)-1-(2-methyl-3-(trifluoromethyl)phenyl)ethyl)amino)-8-((R)-pyrrolidin-2-yl)-2,6-dihydropyrido[3,4-d]pyridazine-1,7-dione] |
| 300 | 124 | Cc1c([C@@H](C)Nc2nn(CCN3CC(C)(F)C3)c(=O)c3cc(=O)n(C4CC4)cc23)cccc1C(F)(F)F [Example 79, (R)-6-cyclopropyl-2-(2-(3-fluoro-3-methylazetidin-1-yl)ethyl)-4-((1-(2-methyl-3-(trifluoromethyl)phenyl)ethyl)amino)-2,6-dihydropyrido[3,4-d]pyridazine-1,7-dione] |
| 345 | 63 | Cc1c([C@@H](C)Nc2nn(C)c(=O)c3c(Br)c(=O)n(C4CC4)cc23)cccc1C(F)(F)F [Example 3, (R)-8-bromo-6-cyclopropyl-2-methyl-4-((1-(2-methyl-3-(trifluoromethyl)phenyl)ethyl)amino)-2,6-dihydropyrido[3,4-d]pyridazine-1,7-dione] |
| 211 | 43 | C[C@@H](Nc1nn(C)c(=O)c2cc(=O)n([C@H]3CCCOC3)cc12)c1cccc(C(F)F)c1F (single isomer, unassigned) [Example 38] |
| 126 | 31 | C[C@@H](Nc1nn(C)c(=O)c2cc(=O)n(C3CC3)cc12)c1cccc2sccc12 [Example 64, (R)-4-((1-(benzo[b]thiophen-4-yl)ethyl)amino)-6-cyclopropyl-2-methyl-2,6-dihydropyrido[3,4-d]pyridazine-1,7-dione] |
| 537 | 87 | Cc1c([C@@H](C)Nc2nn(C)c(=O)c3cc(=O)n([C@H]4C[C@@H](O)C4)cc23)cccc1C(F)(F)F [Example 14, 6-((1s,3s)-3-hydroxycyclobutyl)-2-methyl-4-(((R)-1-(2-methyl-3-(trifluoromethyl)phenyl)ethyl)amino)-2,6-dihydropyrido[3,4-d]pyridazine-1,7-dione] |
| 27.9 | 14 | COc1c(=O)n(C2CCOCC2)cc2c(N[C@H](C)c3cccc(C(F)(F)C(C)(C)O)c3F)nn(C)c(=O)c12 [Example 41, (R)-4-((1-(3-(1,1-difluoro-2-hydroxy-2-methylpropyl)-2-fluorophenyl)ethyl)amino)-8-methoxy-2-methyl-6-(tetrahydro-2H-pyran-4-yl)-2,6-dihydropyrido[3,4-d]pyridazine-1,7-dione] |
| 20.7 | 9 | C[C@@H](Nc1nn(C)c(=O)c2cc(=O)n([C@H]3CCOC[C@@H]3F)cc12)c1cccc(C(F)F)c1F (single isomer, unassigned) [Example 30] |
| 48.7 | 11 | C[C@@H](Nc1nn(C)c(=O)c2cc(=O)n([C@H]3CCOC(C)(C)C3)cc12)c1cccc(C(F)F)c1F (single isomer, unassigned) [Example 83] |
| 33.3 | 16 | C[C@@H](Nc1nn(C)c(=O)c2cc(=O)n(C3CCOCC3)cc12)c1cccc(C(C)(F)F)c1F [Example 36, (R)-4-((1-(3-(1,1-difluoroethyl)-2-fluorophenyl)ethyl)amino)-2-methyl-6-(tetrahydro-2H-pyran-4-yl)-2,6-dihydropyrido[3,4-d]pyridazine-1,7-dione] |
| 192 | 75 | CC(=O)c1c(=O)n(C2CC2)cc2c(N[C@H](C)c3cccc(C(F)(F)F)c3C)nn(C)c(=O)c12 [Example 48, (R)-8-acetyl-6-cyclopropyl-2-methyl-4-((1-(2-methyl-3-(trifluoromethyl)phenyl)ethyl)amino)-2,6-dihydropyrido[3,4-d]pyridazine-1,7-dione] |
| 285 | 125 | Cc1c([C@@H](C)Nc2nn(C)c(=O)c3cc(=O)n([C@@]4(C)CCOC4)cc23)cccc1C(F)(F)F (single isomer, unassigned) [Example 54] |
| 2250 | 136 | Cc1c([C@@H](C)Nc2nn(C)c(=O)c3c(C#N)c(=O)n(C4CC4)cc23)cccc1C(F)(F)F [Example 10, (R)-6-cyclopropyl-2-methyl-4-((1-(2-methyl-3-(trifluoromethyl)phenyl)ethyl)amino)-1,7-dioxo-1,2,6,7-tetrahydropyrido[3,4-d]pyridazine-8-carbonitrile] |
| 160 | 43 | C[C@@H](Nc1nn(C)c(=O)c2cc(=O)n([C@@H]3CCCOC3)cc12)c1cccc(C(F)F)c1F (single isomer, unassigned) [Example 39] |
| 72.5 | 26 | C[C@@H](Nc1nn(C)c(=O)c2cc(=O)n(C3(C#N)CC3)cc12)c1cccc(C(F)F)c1F [Example 66, (R)-1-(4-((1-(3-(difluoromethyl)-2-fluorophenyl)ethyl)amino)-2-methyl-1,7-dioxo-1,7-dihydropyrido[3,4-d]pyridazin-6(2H)-yl)cyclopropane-1-carbonitrile] |
| 25.9 | 10 | COc1c(=O)n([C@@H]2CCOC[C@H]2F)cc2c(N[C@H](C)c3cccc(C(F)F)c3F)nn(C)c(=O)c12 (single isomer, unassigned) [Example 61] |
